IC50 data for 61 molecules are collected here from patent US10633389B2, “CARM1 inhibitors and uses thereof” (Epizyme, Inc., priority 2013, dated 2020).

As usually defined, the IC50 is the concentration at which inhibition is half-maximal. Read a high IC50 as weaker potency.

In the assay the test system is asymmetric di-methyl PABP1 in RKO cells. In words: RKO methylation assay, In Cell Western (ICW) for asymmetric di-methyl PABP1. It counts as cell-based. The settings on record: Homo sapiens, RKO, Cellular potencies, ICW PABP1me2a. In outline: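 RKO cells treated with compound for 48 h at 37 °C, then fixed, permeabilized and immunostained for asymmetric di-methyl PABP1, with DRAQ5 as DNA stain. Infrared 700/800 nm signal ratio normalized to DMSO and 20 μM reference-compound controls; IC50 from triplicate wells.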
With `CNCC(O)COc1cccc(-c2nc(NC3CCCN(C4COC4)C3)c(C)c(-c3c(C)noc3C)n2)c1` (stereo not shown) [Example 246-1a], the IC50 was in the range of 5 to 10 µM. `CNCC(O)COc1cccc(-c2nc(NC3CCOC3)c(C)c(C(=O)NC3CCN(C)CC3)n2)c1` (stereo not shown) [Example 397-1a] gave an IC50 of 10 to 20 µM. The value for `CNC[C@@H](O)COc1ccc(Cl)c(-c2nc(NC3CC(F)(F)C3)c(C)c(-c3c(C)noc3C)n2)c1` [Example 189-3] was less than 5 µM; that for `CNCC(O)COc1cccc(-c2nc(NC3CCNC[C@H]3F)c(C)c(-c3c(C)noc3C)n2)c1` (stereo partly shown) [Example 207-1a] was less than 5 µM; that for `CNC[C@@H](O)COc1ccc(Cl)c(-c2nc(-c3c(C)noc3C)c(C)c(N3Cc4[nH]c(=O)[nH]c(=O)c4C3)n2)c1` [Example 279-3] was 10 to 20 µM. The value for `CNCC(O)COc1cccc(-c2nc(-c3cnc4ccnn4c3)cc(N(C)C3CCOCC3)n2)c1` (stereo not shown) [Example 564-1a] was 10 to 20 µM; that for `CNCC(O)COc1cccc(-c2nc(N[C@@H]3CCOC3)c(C)c(-c3ccncc3)n2)c1` (stereo partly shown) [Example 332-1a] was 10 to 20 µM; that for `CCOC(=O)N1CCN(c2cc(-c3c(C)noc3C)nc(-c3cccc(OCC(O)CNC)c3)n2)CC1` (stereo not shown) [Example 28-1a] was less than 5 µM. In the case of `CNC[C@@H](O)COc1ccc(Cl)c(-c2nc(-c3c(C)noc3C)c(C)c(N3Cc4nccnc4C3)n2)c1` [Example 142-3], the half-maximal inhibitory concentration (IC50) was less than 5 µM. Next, `Cc1noc(C)c1-c1nc(-c2cccc(OCC(O)CN)c2)nc(NC2CCOCC2)c1C` (stereo not shown) [Example 54-1a]: less than 5 µM; `CNCC(O)COc1cccc(-c2nc(N3CCO[C@H](CN)C3)cc(N(C)C3CCOCC3)n2)c1` (stereo partly shown) [Example 524-1a]: 5 to 10 µM; `CNCC(O)COc1cccc(-c2nc(N3CCN(C)CC3)cc(N(C)C3CCOCC3)n2)c1` (stereo not shown) [Example 531-1a]: 5 to 10 µM. The value for `CNCC(O)COc1cccc(-c2nc(-c3c(C)noc3C)cc(N3CCN(CCOC)CC3)n2)c1` (stereo not shown) [Example 139-1a] was less than 5 µM; that for `CNCC(O)COc1cccc(-c2nc(-c3nc(C)cn3C)cc(N(C)C3CCOCC3)n2)c1` (stereo not shown) [Example 519-1a] was 5 to 10 µM.

For the molecule `CNC[C@@H](O)COc1ccc(Cl)c(-c2nc(N[C@H]3CCO[C@@H](C)C3)c(C)c(-c3c(C)noc3C)n2)c1` [Example 128-3], the half-maximal inhibitory concentration (IC50) is less than 5 µM. Molecule `CNCC(O)COc1ccc(Cl)c(-c2nc(N[C@H]3CCC[C@@H](O)C3)c(C)c(-c3c(C)noc3C)n2)c1` (stereo partly shown) [Example 39-3] displayed a concentration for half-maximal inhibition (IC50) of less than 5 µM. Next, `CNC[C@@H](O)COc1ccc(Cl)c(-c2nc(-c3c(C)noc3C)c(C)c(N3Cc4cnc(C(C)C)nc4C3)n2)c1` [Example 264-3]: less than 5 µM. Regarding `CNCC(O)COc1cccc(-c2nc(-c3c(C)noc3C)cc(N3CCN(CC(F)(F)F)CC3)n2)c1` (stereo not shown) [Example 132-1a], the IC50 is less than 5 µM. Next, `CNC[C@@H](O)COc1ccc(Cl)c(-c2nc(N[C@H]3CCN(C(=O)OC)[C@@H](C)C3)c(C)c(-c3c(C)noc3C)n2)c1` [Example 169-3]: less than 5 µM; `CNCC(O)COc1cccc(-c2nc(-c3c(C)noc3C)cc(N3CCNC(C)(C)C3)n2)c1` (stereo not shown) [Example 36-1a]: 10 to 20 µM. In the case of `CNCC(O)COc1cccc(-c2nc(N[C@H]3CC[C@H](O)C3)c(C)c(-c3c(C)noc3C)n2)c1` (stereo partly shown) [Example 135-1a], the half-inhibitory concentration (IC50) is less than 5 µM. In the case of `CNCC(O)COc1cccc(-c2nc(NC3CC(F)C3)c(C)c(-c3c(C)noc3C)n2)c1` (stereo not shown) [Example 3-3], the IC50 was less than 5 µM. In turn, `CNCC(O)COc1cccc(-c2nc(-c3ccncc3)c(C)c(N(C)[C@@H]3CCOC3)n2)c1` (stereo partly shown) [Example 339-1a] gave an IC50 of 10 to 20 µM. Consider `CNCC(O)COc1cccc(-c2nc(N[C@@H]3CCOC3)c(C)c(N3CC4CN(S(C)(=O)=O)CC4C3)n2)c1` (stereo partly shown) [Example 11-3], for which the half-inhibitory concentration (IC50) is 5 to 10 µM. Next, `CNCC(O)COc1cccc(-c2nc(-c3c(C)noc3C)c(C)c(N3[C@@H]4CC[C@H]3CN(C)C4)n2)c1` (stereo partly shown) [Example 117-1a]: 10 to 20 µM; `CNC[C@@H](O)COc1ccc(Cl)c(-c2nc(OC[C@H]3CCCO3)c(C)c(-c3c(C)noc3C)n2)c1` [Example 116-3]: less than 5 µM. The value for `CNCC(O)COc1cccc(-c2nc(-c3c(C)noc3C)c(C)c(N3CC(NC(=O)N(C)C)C3)n2)c1` (stereo not shown) [Example 13-3] was less than 5 µM; that for `CNCC(O)COc1cccc(-c2nc(-c3c(C)noc3C)cc(N3C[C@@H]4C[C@H]3CN4C(C)=O)n2)c1` (stereo partly shown) [Example 95-1a] was 10 to 20 µM. The value for `CNC[C@H](O)COc1ccc(Cl)c(-c2nc(-c3c(C)noc3C)c(C)c(N3CC4(CCN(C5CC5)CC4)C3)n2)c1` [Example 55-3] was less than 5 µM; that for `CCN1CCC[C@@H]1CNc1nc(-c2cc(OC[C@@H](O)CNC)ccc2Cl)nc(-c2c(C)noc2C)c1C` [Example 77-3] was less than 5 µM; that for `CNC[C@@H](O)COc1ccc(Cl)c(-c2nc(NC3CCN(C4CC4)CC3(F)F)c(C)c(-c3c(C)noc3C)n2)c1` (stereo partly shown) [Example 292-3] was less than 5 µM. Turning to `CNC[C@@H](O)COc1ccc(Cl)c(-c2nc(N[C@H]3CO[C@H](C)C3)c(Cl)c(-c3c(C)noc3C)n2)c1` [Example 201-3], the concentration for half-maximal inhibition (IC50) is less than 5 µM.

`CNC[C@H](O)COc1cccc(-c2nc(NC3CCN(C(=O)OC)C(C)C3)c(C)c(-c3c(C)noc3C)n2)c1` (stereo partly shown) [Example 33-3]: the 50% inhibitory concentration (IC50) was less than 5 µM. Next, `CNCC(O)COc1cc(Cl)cc(-c2nc(Nc3cncnc3)cc(-c3c(C)noc3C)n2)c1` (stereo not shown) [Example 9-1a]: 5 to 10 µM; `CNCC(O)COc1cccc(-c2nc(N[C@H]3C[C@@](C)(O)C3)cc(-c3c(C)noc3C)n2)c1` (stereo partly shown) [Example 67-1a]: 10 to 20 µM; `CNCC(O)COc1cc(Cl)cc(-c2nc(N[C@@H]3CCOC3)c(C)c(-c3ccncc3)n2)c1` (stereo partly shown) [Example 331-1a]: 5 to 10 µM. On to `CNC[C@@H](O)COc1ccc(Cl)c(-c2nc(NC[C@H]3CCCO3)c(C)c(-c3c(C)noc3C)n2)c1` [Example 130-3], for which the IC50 is less than 5 µM. For `CNC[C@@H](O)COc1ccc(Cl)c(-c2nc(-c3c(C)noc3C)c(C)c(N3Cc4cnc(C5CC5)nc4C3)n2)c1` [Example 259-3], the IC50 was less than 5 µM. Next, `CNCC(O)COc1cccc(-c2nc(N[C@H]3COC(=O)C3)c(C)c(-c3c(C)noc3C)n2)c1` (stereo partly shown) [Example 267-1a]: 10 to 20 µM; `CNC[C@@H](O)COc1ccc(Cl)c(-c2nc(-c3c(C)noc3C)c(Cl)c(N3Cc4nc(C)sc4C3)n2)c1` [Example 243-3]: less than 5 µM; `CCOC(=O)N1CCC[C@H]1CCOc1nc(-c2cc(OC[C@H](O)CNC)ccc2Cl)nc(-c2c(C)noc2C)c1C` [Example 221-3]: less than 5 µM. Turning to `CNC[C@@H](O)COc1ccc(Cl)c(-c2nc(N[C@@H]3CCN(C(=O)OC)[C@H](C)C3)c(C)c(-c3c(C)noc3C)n2)c1` [Example 135-3], the half-inhibitory concentration (IC50) is less than 5 µM. As for `CNCC(O)COc1cccc(-c2nc(NC[C@@H]3CN(C(=O)OC)CCO3)c(C)c(-c3c(C)noc3C)n2)c1` (stereo partly shown) [Example 306-1a], the IC50 is less than 5 µM.

As to `CNCC(O)COc1cccc(-c2nc(-c3c(C)noc3C)c(C)c(N3CC4(CN(C(=O)N(C)C)C4)C3)n2)c1` (stereo not shown) [Example 309-1a], the IC50 was less than 5 µM.

As to `CNCC(O)COc1cccc(-c2nc(-c3c(C)noc3C)c(C)c(N(C)CC3CCOCC3)n2)c1` (stereo not shown) [Example 86-1a], the IC50 was 5 to 10 µM. On to `CNCC(O)COc1cccc(-c2nc(NC3CCOCC3)cc(-c3c(C)noc3C)n2)c1` (stereo not shown) [Example 33-1], for which the half-inhibitory concentration (IC50) was less than 5 µM. Next, `CNCC(O)COc1cccc(-c2nc(N[C@@H]3CCOC3)c(C)c(N3CCN(C)C(=O)C3)n2)c1` (stereo partly shown) [Example 435-1a]: 10 to 20 µM.

Regarding `CNC[C@@H](O)COc1ccc(Cl)c(-c2nc(-c3c(C)noc3C)c(C)c(N3Cc4cc(Cl)cnc4C3)n2)c1` [Example 156-3], the IC50 was less than 5 µM.

For the molecule `CNC[C@@H](O)COc1ccc(F)c(-c2nc(-c3c(C)noc3C)cc(N3Cc4cnn(C)c4C3)n2)c1` [Example 275-3], the IC50 is less than 5 µM.

For the molecule `CNCC(O)COc1cccc(-c2nc(N[C@@H]3CCOC3)c(C)c(N3CCN(C(C)=O)C(C)(C)C3)n2)c1` (stereo partly shown) [Example 439-1a], the IC50 was in the range of 5 to 10 µM. The value for `CNCC(O)COc1cccc(-c2nc(-c3c(C)noc3C)cc(N3CCNC(C(=O)O)C3)n2)c1` (stereo not shown) [Example 29-1a] was 10 to 20 µM; that for `CNCC(O)COc1cccc(-c2nc(-c3scnc3C)cc(N(C)C3CCOCC3)n2)c1` (stereo not shown) [Example 495-1a] was less than 5 µM. Take `CNCC(O)COc1cccc(-c2nc(N3CCN(C(=O)OC)[C@@H](C)C3)cc(N(C)C3CCOCC3)n2)c1` (stereo partly shown) [Example 581-1a]: the concentration for half-maximal inhibition (IC50) fell in the range of 10 to 20 µM. Consider `CNCC(O)COc1cccc(-c2nc(OCC3CCOCC3)c(C)c(-c3c(C)noc3C)n2)c1` (stereo not shown) [Example 182-1a], for which the half-maximal inhibitory concentration (IC50) was less than 5 µM. Next, `CNCC(O)COc1ccc(Cl)c(-c2nc(NC3CC4(CCN(C(=O)OC)CC4)C3)c(C)c(-c3c(C)noc3C)n2)c1` (stereo not shown) [Example 37-3]: less than 5 µM; `CNCC(O)COc1cc(Cl)cc(-c2nc(C(=O)N(C)CC3CCOCC3)cc(N(C)C3CCOCC3)n2)c1` (stereo not shown) [Example 577-1a]: 10 to 20 µM; `CNCC(O)COc1cc(Cl)cc(-c2nc(-c3cnc4ccccn34)c(C)c(N(C)C3CCOCC3)n2)c1` (stereo not shown) [Example 561-1a]: 10 to 20 µM. The value for `CNCC(O)COc1cccc(-c2nc(N[C@@H]3CCN(C(=O)OC(C)(C)C)C[C@@H]3F)c(C)c(-c3c(C)noc3C)n2)c1` (stereo partly shown) [Example 227-1a] was less than 5 µM; that for `CNCC(O)COc1cccc(-c2nc(N[C@@H]3CCOC3)c(C)c(N(C)C3CCN(C)CC3)n2)c1` (stereo partly shown) [Example 379-1a] was 10 to 20 µM.

`CNCC(O)COc1cccc(-c2nc(-c3c(C)noc3C)cc(N(C)C3CCOCC3)n2)c1` (stereo not shown) [Example 1-1a] came in with an IC50 of less than 5 µM. The value for `CNC[C@@H](O)COc1ccc(Cl)c(-c2nc(N[C@@H]3CCN(C(=O)OC)[C@@H](C)C3)c(C)c(-c3c(C)noc3C)n2)c1` [Example 101-3] was less than 5 µM.
